Source: patent publication US10981932B2, “Macrocyclic indole derivatives” (Bayer Aktiengesellschaft, priority 2016, dated 2021)
Several values for one entry are separate records, joined by “and”; a condition that tells them apart may be missing. Equal entries are not always repeated. Structures can show the parent of a compound that is named as a salt. Where two headings read alike, the source gives them in different places.

Tests used:
MCL-1 = MCL-1 (Homo sapiens, UniProt Q07820); test: Protein-protein interaction assay MCL-1/Noxa BH3 peptide (MCL-1 assay), TR-FRET; format: binding; conditions: MBP-MCL-1 / Noxa BH3-derived peptide, median
Outline: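 IC50 came from a 4-parameter fit of the normalized 665/620 nm TR-FRET ratio (anti-MBP Eu-cryptate/streptavidin-XL665). Compounds (0.1 nM–20 μM, duplicates) were preincubated 10 min at 22 °C with 1 nM MBP-MCL-1 in pH 7 Tris/NaCl/KF buffer, then read after 1 h at 22 °C plus overnight at 4 °C.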

SUDHL5 [1] = test: Induction of caspase-3/7 activity (Caspase-Glo 3/7), SUDHL5; format: cell-based; conditions: caspase-3/7 induction, SUDHL5 cells, 3 h treatment, median
Outline: (§1)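 DLBCL lines SUDHL5 and SUDHL10 treated with compounds for 3 h at 37 °C; caspase-3/7 activity read by Caspase-Glo 3/7 luminescence. Medium-only background subtracted; EC50 fitted with bottom fixed at 1 and top fixed at the reference compound's maximal induction.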

SUDHL10 [2] = test: Induction of caspase-3/7 activity (Caspase-Glo 3/7), SUDHL10; format: cell-based; conditions: caspase-3/7 induction, SUDHL10 cells, 3 h treatment, median
Outline: as §1

SUDHL5 [3] = test: Anti-proliferative effect (CellTiter-Glo, 72 h), SUDHL5; format: cell-based; conditions: SUDHL5 cells, antiproliferation, median, read-out: Antiproli SUDHL5 [M] (median)
Outline: (§2)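 Cells plated and incubated with compounds for 72 h at 37 °C, with a parallel day 0 reference plate for time-zero signal. Viability read by CellTiter-Glo luminescence after 10 min, measured identically on the day 0 and 72 h plates.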

SUDHL10 [4] = test: Anti-proliferative effect (CellTiter-Glo, 72 h), SUDHL10; format: cell-based; conditions: SUDHL10 cells, antiproliferation, median, read-out: Antiproli SUDHL10 [M] (median)
Outline: as §2

A2780 = test: Anti-proliferative effect (CellTiter-Glo, 72 h), A2780; format: cell-based; conditions: A2780 cells, median, read-out: IC50 antiproliferation assay A2780 [M] (median)
Outline: as §2

MV-4-11 = test: Anti-proliferative effect (CellTiter-Glo, 72 h), MV-4-11; format: cell-based; conditions: MV-4-11 cells, median, read-out: IC50 antiproliferation assay MV-4-11 [M] (median)
Outline: as §2

SUDHL5 [5] = test: Induction of cytotoxicity (CellTiter-Glo, 5 h), SUDHL5
SUDHL10 [6] = test: Induction of cytotoxicity (CellTiter-Glo, 5 h), SUDHL10
[7] = Homo sapiens, SU-DHL-5, 72 h, 72 h incubation
[8] = Homo sapiens, SU-DHL10, 72 h, 72 h incubation
[9] = Homo sapiens, SU-DHL-5, 5 h, read-out: Cytotox SUDHL5 [M] (median), SUDHL5 cells, cytotoxicity induction, CellTiter-Glo, 5 h incubation, median
[10] = Homo sapiens, SU-DHL10, 5 h, read-out: Cytotox SUDHL10 [M] (median), SUDHL10 cells, cytotoxicity induction, CellTiter-Glo, 5 h incubation, median
[11] = Homo sapiens, SU-DHL-5, 72 h, 72 h
[12] = Homo sapiens, SU-DHL-5, 5 h, read-out: Cytotox SUDHL5 [M] (median), SUDHL5 cells, cytotoxicity induction, CellTiter-Glo, 5 h, median
[13] = Homo sapiens, SU-DHL10, 5 h, read-out: Cytotox SUDHL10 [M] (median), SUDHL10 cells, cytotoxicity induction, CellTiter-Glo, 5 h, median
[14] = read-out: Cytotox SUDHL5 [M] (median), SUDHL5 cells, cytotoxicity induction, CellTiter-Glo, 5 h, median
[15] = read-out: Cytotox SUDHL10 [M] (median), SUDHL10 cells, cytotoxicity induction, CellTiter-Glo, 5 h, median

Sequence of MCL-1 (Q07820 whole entry): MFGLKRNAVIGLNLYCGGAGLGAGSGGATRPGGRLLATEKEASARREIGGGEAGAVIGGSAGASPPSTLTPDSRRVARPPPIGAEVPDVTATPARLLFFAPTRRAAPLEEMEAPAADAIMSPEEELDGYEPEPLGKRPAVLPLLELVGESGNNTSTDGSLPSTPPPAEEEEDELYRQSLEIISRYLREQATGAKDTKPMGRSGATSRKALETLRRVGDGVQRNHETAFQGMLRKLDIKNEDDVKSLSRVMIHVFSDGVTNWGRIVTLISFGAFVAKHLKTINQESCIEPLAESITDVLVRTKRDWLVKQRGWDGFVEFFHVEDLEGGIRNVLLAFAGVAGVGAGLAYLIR

SMILES	IC50 (MCL-1) [nM]	EC50 (SUDHL5 [1]; Homo sapiens, SU-DHL-5, 3 h) [µM]	EC50 (SUDHL10 [2]; Homo sapiens, SU-DHL10, 3 h) [µM]	IC50 (SUDHL5 [3]; [7]) [M]	IC50 (A2780; Homo sapiens, A2780, 72 h) [M]	IC50 (MV-4-11; Homo sapiens, MV4-11, 72 h) [M]	IC50 (SUDHL5 [5]; [9]) [M]	IC50 (SUDHL10 [6]; [10]) [M]	EC50 (SUDHL5 [1]) [µM]	EC50 (SUDHL10 [2]) [µM]	IC50 (A2780)	IC50 (SUDHL10 [6]; [15]) [M]	further results
O=C(O)c1c(CCCOc2cccc3ccccc23)c2cccc3c2n1CCCCOCc1nn2c(c1-3)CCCC2 (racemic) [Example 253, (rac)-1-[3-(naphthalen-1-yloxy)propyl]-4,5,6,7,12,13,14,15-octahydro-9H-pyrido[1″,2″:1′,5′]pyrazolo[4′,3′:9,10][1,6]oxazacycloundecino[8,7,6-hi]indole-2-carboxylic Acid]	8.67	6.7	18.6	5.74e-06	2.83e-05	7.59e-06	6.7e-06	1.96e-05					IC50 (SUDHL10 [4]; [8]): 1.17e-05 M
Cc1ccc2c(C(C)CCOc3cccc4cc(F)ccc34)c(C(=O)O)n3c2c1-c1c(nn(C)c1C)COCCCC3 (racemic) [Example 276, 7-{4-[(6-fluoronaphthalen-1-yl)oxy]butan-2-yl}-2,3,4-trimethyl-2,10,11,12,13,15-hexahydropyrazolo[4′3′:9,10][1,6]oxazacycloundecino[8,7,6-hi]indole-8-carboxylic Acid]	7.56	4.07	10.3	5.85e-06	1.22e-05	1.2e-05	5.23e-06	1.03e-05					IC50 (SUDHL10 [4]; [8]): 7.32e-06 M
Cc1c2c(nn1CCN1CCOCC1)COCCCCn1c(C(=O)O)c(CCCOc3cccc4cc(F)ccc34)c3cccc-2c31 (racemic) [Example 284, (rac)-7-{3-[(6-fluoronaphthalen-1-yl)oxy]propy}-3-methyl-2-[2-(morpholin-4-yl)ethyl]-2,10,11,12,13,15-hexahydropyrazolo[4′,3′:9,10][1,6]oxazacycloundecino[8,7,6-hi]indole-8-carboxylic Acid]	2.21	1.84	3.73	2.82e-06	1.52e-05	8.62e-06	2.46e-06	4.25e-06					IC50 (SUDHL10 [4]; [8]): 7.01e-06 M
CCc1nn(C)c2c1-c1cccc3c(CCCOc4cccc5cc(F)ccc45)c(C(=O)O)n(c13)CCCCOC2 (racemic) [Example 287, (rac)-3-ethyl-7-{3-[(6-fluoronaphthalen-1-yl)oxy]propyl}-1-methyl-1,10,11,12,13,15-hexahydropyrazolo[4′,3′:9,10][1,6]oxazacycloundecino[8,7,6-hi]indole-8-carboxylic Acid]	2.06	5.14	13		3.05e-05	1.49e-05							IC50 (SUDHL5 [3]; [11]): 7.2e-06 M; IC50 (SUDHL10 [4]; Homo sapiens, SU-DHL10, 72 h, 72 h): 8.1e-06 M; IC50 (SUDHL5 [5]; [12]): 5.19e-06 M; IC50 (SUDHL10 [6]; [13]): 1.58e-05 M
Cn1nc(COc2cncnc2)c2c1COCCCCn1c(C(=O)O)c(CCCOc3cccc4ccccc34)c3cccc-2c31 (single isomer, unassigned) [Example 212, 1-methyl-7-[3-(naphthalen-1-yloxy)propyl]-3-[(pyrimidin-5-yloxy)methyl]-1,10,11,12,13,15-hexahydropyrazolo[4′,3′:9,10][1,6]oxazacycloundecino[8,7,6-hi]indole-8-carboxylic Acid]	6.37					5e-06			7.34	19.9	2.15e-05 M and > 3.3e-05 M		IC50 (SUDHL5 [3]; 72 h incubation): 5.11e-06 M; IC50 (SUDHL10 [4]; 72 h incubation): 3.63e-06 M; IC50 (SUDHL5 [5]; read-out: Cytotox SUDHL5 [M] (median), SUDHL5 cells, cytotoxicity induction, CellTiter-Glo, 5 h incubation, median): 6.68e-06 M; IC50 (SUDHL10 [6]; read-out: Cytotox SUDHL10 [M] (median), SUDHL10 cells, cytotoxicity induction, CellTiter-Glo, 5 h incubation, median): 2.02e-05 M
Cn1nc(COCc2ccc(C#N)cc2)c2c1COCCCCn1c(C(=O)O)c(CCCOc3cccc4ccccc34)c3cccc-2c31 (single isomer, unassigned; enantiomer 2) [Example 348, 3-{[(4-cyanobenzyl)oxy]methyl}-1-methyl-7-[3-(naphthalen-1-yloxy)propyl]-1,10,11,12,13,15-hexahydropyrazolo[4′,3′:9,10][1,6]oxazacycloundecino[8,7,6-hi]indole-8-carboxylic acid-N-ethylethanamine Salt (Enantiomer 2)]	19.6								14.6	16.8	1.46e-05 M	2.81e-05	IC50 (SUDHL5 [3]; 72 h): 5.12e-06 M; IC50 (MV-4-11): 4.15e-06 M; IC50 (SUDHL5 [5]; [14]): 1.38e-05 M
COc1ccc2c(CCCOc3cccc4ccccc34)c(C(=O)O)n3c2c1-c1c(nn(C)c1C)COCCCC3 (single isomer, unassigned; enantiomer 2) [Example 351, 4-methoxy-2,3-dimethyl-7-[3-(naphthalen-1-yloxy)propyl]-2,10,11,12,13,15-hexahydropyrazolo[4′,3′:9,10][1,6]oxazacycloundecino[8,7,6-hi]indole-8-carboxylic acid-N-ethylethanamine Salt (Enantiomer 2)]	2030								> 33	> 33	> 3.3e-05 M	> 3.3e-05	IC50 (SUDHL5 [3]; 72 h): 2.07e-05 M; IC50 (MV-4-11): > 3.3e-05 M; IC50 (SUDHL5 [5]; [14]): > 3.3e-05 M
COc1ccc2c(CCCOc3cccc4ccccc34)c(C(=O)O)n3c2c1-c1c(C)nn(C)c1COCCCC3 (single isomer, unassigned; enantiomer 2) [Example 353, 4-methoxy-1,3-dimethyl-7-[3-(naphthalen-1-yloxy)propyl]-1,10,11,12,13,15-hexahydropyrazolo[4′,3′:9,10][1,6]oxazacycloundecino[8,7,6-hi]indole-8-carboxylic Acid Ammonium Salt (Enantiomer 2)]	1280								> 33	> 33	2.17e-05 M	> 3.3e-05	IC50 (SUDHL5 [3]; 72 h): 8.32e-06 M; IC50 (MV-4-11): 3.11e-05 M; IC50 (SUDHL5 [5]; [14]): > 3.3e-05 M
Cc1nn(C)c2c1-c1cccc3c(CCCOc4cccc5ccccc45)c(C(=O)O)n(c13)CCCCCN(C)C2 [Example 237, (rac)-1,3,15-Trimethyl-7-[3-(naphthalen-1-yloxy)propyl]-1,10,11,12,13,14,15,16-octahydropyrazolo[4′,3′:4,5][1,7]diazacyclododecino[3,2,1-hi]indole-8-carboxylic Acid]	4.99	5.55	15.7	5.65e-06	1.9e-05	1.35e-05	6.6e-06	1.18e-05					
Cc1nn(C)c2c1-c1cccc3c(CCCOc4cccc5c4CCCC5)c(C(=O)O)n(c13)CCCCCN(C)C2 [Example 240, (rac)-1,3,15-Trimethyl-7-[3-(5,6,7,8-tetrahydronaphthalen-1-yloxy)propyl]-1,10,11,12,13,14,15,16-octahydropyrazolo[4′,3′:4,5][1,7]diazacyclododecino[3,2,1-hi]indole-8-carboxylic Acid]	8.85	11.6	> 33	1.19e-05	> 3.3e-05	2.56e-05	1.26e-05	> 3.3e-05					
Cc1nn(C)c2c1-c1cccc3c(CCCOc4cccc5cc(C(F)(F)F)ccc45)c(C(=O)O)n(c13)CCCCOC2 [Example 364, (rac)-10,12-dimethyl-1-(3-((6-(trifluoromethyl)naphthalen-1-yl)oxy)propyl) -4,5,67,9,10-hexahydropyrazolo[4′,3′:9,10][1,6]oxaazacycloundecino[8,7,6-hi]indole-2-carboxylic Acid]	63.3	24.2	> 33		1.69e-05	2.42e-05						2.04e-05	IC50 (SUDHL5 [3]; [11]): 9.54e-06 M; IC50 (SUDHL5 [5]; [12]): 1.92e-05 M; IC50 (SUDHL10 [6]; [13]): > 3.3e-05 M
